Test results from patent US11753445B2, “Therapeutic peptides” (COHBAR, INC., priority 2016, dated 2023).
Marks after values point to notes of the source that are not given here.

Legend:
[1] = tested on: STAM Mouse Model of Non-alcoholic Steatohepatitis (NASH); assay: NAFLD activity score in STAM mouse model of NASH (Example 18); type: in vivo, C57/BL6 mice; conditions: male STAM mice, N = 8, Mean (SD)
Experimental: In the STAM® model of NASH, C57/BL6 mice were injected with a single subcutaneous dose of 200 μg […], two days after birth to destroy pancreatic j-cells. At the age of 4 weeks, animals were put on a high fat diet (57% kcal from fat) and maintained on the same diet throughout the study. […] Beginning at 6 weeks of age, groups of STAM animals (8 animals per group) were treated with the peptides of the present invention administered twice daily by intraperitoneal injection, until study termination. A control group of STAM animals (n=8) received daily doses of telmisartan control compound (10 mg/kg). An additional group of normal mice (n=8) received no treatment. After 21 days of dosing, at 9 weeks of age, metabolic parameters were determined and animals were sacrificed. Liver samples were obtained and fixed, embedded in paraffin, stained with hematoxylin and eosin, and examined by light microscopy. The extent of steatosis and the non-alcoholic fatty liver disease (NAFLD) activity score (NAS) were determined histopathologically according to methods known in the art.

[2] = tested on: STAM Mouse Model of Non-alcoholic Steatohepatitis (NASH); assay: Liver triglyceride and plasma ALT levels in STAM mouse model of NASH (Example 19); type: in vivo, C57/BL6 mice; conditions: male STAM mice, N = 8, Mean (SD)
Experimental: In the STAM® model of NASH, C57/BL6 mice were injected with a single subcutaneous dose of 200 μg […], two days after birth to destroy pancreatic j-cells. At the age of 4 weeks, animals were put on a high fat diet (57% kcal from fat) and maintained on the same diet throughout the study. […] […] A control group of STAM animals (n=8) received daily doses of telmisartan control compound (10 mg/kg). An additional group of normal mice (n=8) received no treatment. After 21 days of dosing, at 9 weeks of age, metabolic parameters were determined and animals were sacrificed. Liver triglyceride levels were determined by homogenization in chloroform-methanol and incubation overnight at room temperature. After washing with chloroform-methanol-water, the extracts were evaporated to dryness and dissolved in isopropanol. Liver triglyceride content was then measured by Triglyceride E-test (Wako, Japan). Plasma ALT levels were determined by using Fuji Dri-Chem 7000 (Fujifilm, Japan).

[3] = tested on: Diet Induced Obese (DIO) mice; assay: Body weight and fat mass in Diet Induced Obese mice, 21-day study (Example 7); type: in vivo, Male C57BL/6 mice; conditions: male DIO mice; 21 days twice daily IP 15 mg/kg/dose; Mean (SD)
Experimental: Male C57BL/6 mice were maintained on a high fat diet for 12 to 22 weeks to develop diet induced obesity. Animals were randomized to treatment groups based on blood glucose levels and body weight. The peptides (SEQ ID No: 208 and SEQ ID NO: 210) were each administered to a group of male DIO mice twice daily by appropriate routes at a dose of 15 mg/kg/dose for 21 days (N=8 to 12 animals per treatment group). […] Metabolic parameters including body weight, blood glucose levels and food intake were monitored. Body mass distribution (fat vs lean) was determined where appropriate by quantitative whole body NMR prior to dosing and at the end of dosing.

[4] = tested on: Diet Induced Obese (DIO) mice; assay: Serum triglycerides and enzyme markers of liver damage in DIO mice, 21 days (Example 9); type: in vivo, Male C57BL/6 mice; conditions: male DIO mice; for reduction in serum ALT compared to liraglutide or vehicle alone / reduction in serum AST compared to liraglutide or vehicle alone / reduction in serum triglycerides compared to liraglutide or vehicle alone: 21 days twice daily 15 mg/kg/dose; for ALT (U/L), mean concentration in serum / AST (U/L), mean concentration in serum / Triglycerides (mg/dL), mean concentration in serum: 21 days twice daily IP 15 mg/kg/dose, serum 2 hours after first dose on Day 21
Experimental: Male C57BL/6 mice were maintained on a high fat diet for 12 to 22 weeks to develop diet induced obesity. Animals were randomized to treatment groups based on blood glucose levels and body weight. The peptides (SEQ ID No: 208, and SEQ ID NO: 210) were each administered to a group of male DIG mice twice daily by appropriate routes at a dose of 15 mg/kg/dose for 21 days (N=8 to 12 animals per treatment group). […] Serum samples were obtained at termination 2 hours after the first dose on Day 21. Samples were analyzed for standard clinical chemistry parameters by methods well known in the art.

[5] = 21 days IP BID 15 mg/kg/dose beginning at 6 weeks of age

| Compound | NAFLD Activity Score (NAS) ([1]; 21 days PO QD 10 mg/kg/dose beginning at 6 weeks of age) | Liver Triglyceride Levels (mg/g liver) ([2]; 21 days PO BID 10 mg/kg) | Plasma ALT (U/L) ([2]; 21 days PO BID 10 mg/kg) | Decrease from Baseline in Body Weight (%) [3] | Decrease from Baseline in Fat Mass (g) [3] | reduction in serum ALT compared to liraglutide or vehicle alone [4] | reduction in serum AST compared to liraglutide or vehicle alone [4] | reduction in serum triglycerides compared to liraglutide or vehicle alone [4] | ALT (U/L), mean concentration in serum [4] [U/L] | AST (U/L), mean concentration in serum [4] [U/L] | Triglycerides (mg/dL), mean concentration in serum [4] [mg/dL] | NAFLD Activity Score (NAS) [1, 5] | Liver Triglyceride Levels (mg/g liver) [2, 5] | Plasma ALT (U/L) [2, 5] |
| --- | --- | --- | --- | --- | --- | --- | --- | --- | --- | --- | --- | --- | --- | --- |
| CCCc1nc2c(C)cc(-c3nc4ccccc4n3C)cc2n1Cc1ccc(-c2ccccc2C(=O)O)cc1 [Telmisartan, telmisartan, reference compound] | 2.6 (0.5)* | 18.8 (5.8)* mg/g liver | 39 (6)* U/L |  |  |  |  |  |  |  |  |  |  |  |
| H-MRWQEMNYIFYPR-OH [SEQ ID NO: 208] |  |  |  | −17.2 (3.0) % | −6.4 (0.5) g | greater reduction | greater reduction | greater reduction | 40.4 | 70.0 | 76.0 | 3.7 (0.5)* | 35.3 (15.1)* mg/g liver | 43 (16)* U/L |
| H-RWQEMNYIFYPR-OH [SEQ ID NO: 210] |  |  |  | −14.1 (4.8) % |  | greater reduction | greater reduction | greater reduction | 45.0 | 125 | 93.0 | 3.3 (1.1)* | 43.6 (9.3)* mg/g liver | 37 (13)* U/L |
